Test results published in patent US11214803B2, “Modulators of YAP1 expression” (Ionis Pharmaceuticals, Inc., priority 2019, dated 2022).
Strand notation (5' to 3'): a small letter for the sugar, then the base; units joined by * are phosphorothioate-linked, units joined directly phosphodiester-linked; [ ] holds rarer units or linkages, { } end groups; capitals alone tell only the bases. k = constrained ethyl (cEt); [5mC] = 5-methylcytosine; d = 2'-deoxy (DNA)

Key:
Yap1 mRNA [1] = test: Inhibition of human Yap1 mRNA in epidermoid carcinoma A-431 xenograft tumors (Example 27); type: in vivo; details: A-431 xenografts in NCr-Foxn1nu mice, 6-8 hours post final dose, relative to PBS
Procedure: An epidermoid carcinoma A-431 xenograft tumor model was used to evaluate activity of modified oligonucleotides targeted to human Yap1. Five million A-431 cells in 30% matrigel were implanted subcutaneously into the flanks of female NCr-Foxn1nu mice (from Taconic) at 4-6 weeks of age. When tumors reached an average volume of 40 mm^3, approximately two weeks post-implantation, groups of four mice each were administered at either 25 mg/kg or 50 mg/kg daily with modified oligonucleotides for […] (5 doses). Tumors were collected 6-8 hours post final dose and tested for Yap1 mRNA knockdown by RT-qPCR. Yap1 mRNA levels were measured as previously described using the Human Yap1 primer-probe set RTS4814. Yap1 mRNA levels were normalized to actin-beta content, as measured by primer probe set RTS5002. Results are presented in the tables below as percent control of the amount of Yap1 mRNA relative to PBS treated animals (% control).

Yap1 mRNA [2] = test: Dose-dependent inhibition of human Yap1 in A-431 cells (Example 24, 11,000 cells per well, RTS36584, normalized to GAPDH); type: cell-based; details: free uptake, 48 hours; for Yap1 mRNA, % UTC: RTS36584, normalized to GAPDH; for IC50: linear regression on a log/linear plot
Procedure: Modified oligonucleotides described in the studies above were tested at various doses in A-431 cells. Cultured A-431 cells at a density of 11,000 cells per well were treated using free uptake with modified oligonucleotides diluted to concentrations described in the tables below. After approximately 48 hours, Yap1 mRNA levels were measured as previously described using the Human Yap1 primer-probe set RTS36584. Yap1 mRNA levels were normalized to GAPDH content, as measured by primer probe set RTS104 (forward sequence […], designated herein as SEQ ID NO.: 17; reverse sequence […], designated herein as SEQ ID NO.: 18; probe sequence […], designated herein as SEQ ID NO.: 19). Results are presented in the tables below as percent control of the amount of Yap1 mRNA relative to untreated control cells (% UTC). IC50s were calculated using a linear regression on a log/linear plot of the data in excel.

SCC25 cells = test: Cell proliferation assay in SCC25 cells, CellTiter-Glo (Example 25); type: cell-based, human; details: free uptake, 144 hours
Procedure: Modified oligonucleotides described in the studies above were tested at various doses in squamous cell carcinoma cell SCC25. A control oligonucleotide 792169 (a 3-10-3 cET gapmer with a full phosphorothioate backbone, […], designated herein as SEQ ID No.: 2940; is not complementary to any known human gene) was also tested.
Cultured SCC25 cells at a density of 1,000 cells/well were treated using free uptake with modified oligonucleotides diluted to concentrations described in the tables below. After approximately 144 hours, cell proliferation was measured using the luminescent cell viability CellTiter-Glo® 2.0 Assay (Promega). Results are presented in the tables below as percent control of the amount of luminescence in samples treated with modified oligonucleotides relative to untreated control cells (% UTC).

[3] = Cynomolgus monkey tolerability, urine analysis (Example 34); details: cynomolgus monkeys, 35 mg/kg subcutaneously, day 44
Procedure: Prior to the study, the monkeys were kept in quarantine during which the animals were observed daily for general health. The monkeys were 2-4 years old and weighed 2-4 kg. Eleven groups of 4 randomly assigned male cynomolgus monkeys each were injected subcutaneously with Ionis oligonucleotide or saline in a clock-wise rotation between four different sites on the back. Following loading doses on days 1, 3, 5 and 7, the monkeys were dosed once per week (on days 14, 21, 28, 35, and 42) with 35 mg/kg of Ionis oligonucleotide.
Food was removed overnight the day before fresh urine collection, but water was supplied. Fresh urine samples for urinalysis and urine chemistry were collected from all animals using a clean cage pan on wet ice (first in the morning) on day 44. Urinalysis/Urine Chemistry parameters creatinine (UCRE), microprotein (UTP), urine microalbumin (UALB), and protein/creatinine (P/C) ratio were measured using a Toshiba 120FR automated chemistry analyzer (Toshiba Co., Japan).

[4] = Cynomolgus monkey tolerability, pro-inflammatory proteins analysis, Complement C3 and CRP (Example 34); type: in vivo; details: cynomolgus monkeys, 35 mg/kg subcutaneously; for CRP: day 44
Procedure: To evaluate any inflammatory effect of Ionis oligonucleotides in cynomolgus monkeys, blood samples were taken for analysis. The monkeys were fasted overnight prior to blood collection. On day 42 (pre-dose and 24 hours post-dose), approximately 0.8 mL of blood was collected from each animal and put into tubes without anticoagulant for serum separation. […] Complement C3 were measured using a Toshiba 120 FR NEO chemistry analyzer (Toshiba Co., Japan). […] Another marker of inflammation, C-Reactive Protein (CRP) was tested together with the clinical chemistry parameters tested for liver function above.

[5] = Cynomolgus monkey tolerability, coagulation (Example 34); type: in vivo; details: cynomolgus monkeys, 35 mg/kg subcutaneously, day 44
Procedure: To evaluate effect of Ionis modified oligonucleotides on coagulation in cynomolgus monkeys, blood samples of approximately 0.9 mL were collected from each of the available study animals on day 44. The samples were collected in tubes containing 3.2% sodium citrate. Coagulation parameters tested include Activated partial thromboplastin time (APTT), prothrombin time (PT) and Figrinogen (FIB).

[6] = Cynomolgus monkey tolerability, body and organ weight measurements (Example 34); type: in vivo; details: cynomolgus monkeys, 35 mg/kg subcutaneously; for Heart weight / Kidney weight / Liver with gallbladder weight / Spleen weight: necropsy; for Terminal Body Weight: prior to necropsy
Procedure: Cynomolgus monkeys were treated with Ionis modified oligonucleotides selected from studies described in the Examples above. Modified oligonucleotide tolerability was evaluated.
During the study period, the monkeys were observed twice daily for signs of illness or distress. Any animal experiencing more than momentary or slight pain or distress due to the treatment, injury or illness was treated by the veterinary staff with approved analgesics or agents to relieve the pain after consultation with the Study Director. Any animal in poor health or in a possible moribund condition was identified for further monitoring and possible euthanasia. Scheduled euthanasia of the animals was conducted on day 86 approximately 48 hours after the last dose by exsanguination while under deep anesthesia. The protocols described in the Example were approved by the Institutional Animal Care and Use Committee (IACUC).
To evaluate the effect of Ionis oligonucleotides on the overall health of the animals, body and organ weights were measured. Terminal body weight was measured prior to necropsy.

Row | Substance | Yap1 mRNA in tumors, % control (Yap1 mRNA [1]; 25 mpk daily (5 doses)) [% control] | Yap1 mRNA in tumors, % control (Yap1 mRNA [1]; 50 mpk daily (5 doses)) [% control] | Yap1 mRNA, % UTC (Yap1 mRNA [2]; 0.002 μM) [% UTC] | Yap1 mRNA, % UTC (Yap1 mRNA [2]; 0.008 μM) [% UTC] | Yap1 mRNA, % UTC (Yap1 mRNA [2]; 0.04 μM) [% UTC] | Yap1 mRNA, % UTC (Yap1 mRNA [2]; 0.2 μM) [% UTC] | Yap1 mRNA, % UTC (Yap1 mRNA [2]; 1 μM) [% UTC] | cell proliferation (luminescence) % UTC (SCC25 cells; 0.04 μM) [% UTC] | cell proliferation (luminescence) % UTC (SCC25 cells; 0.2 μM) [% UTC] | cell proliferation (luminescence) % UTC (SCC25 cells; 1 μM) [% UTC] | cell proliferation (luminescence) % UTC (SCC25 cells; 5 μM) [% UTC] | UALB [3] [mg/dL] | UCRE [3] [mg/dL] | UTP [3] [mg/dL] | Complement C3 ([4]; Day 42 (pre-dose)) [mg/dL] | Complement C3 ([4]; day 42 (24 hr post-dose)) [mg/dL] | CRP [4] [mg/L] | APTT [5] [s] | FIB [5] [mg/dL] | PT [5] [s] | also measured
1 | 715487 (kA*kT*kT*dA*d[5mC]*dT*dT*d[5mC]*dA*dT*dA*dG*d[5mC]*kT*kT*kA) [compound 715487] | 61 | 57 |  |  |  |  |  |  |  |  |  |  |  |  |  |  |  |  |  |  | 
2 | 1076453 (GTAATATTGCAATCTG; 3-10-3 cEt gapmer, further chemistry not given here) [compound 1076453] | 55 | 25 | 0 | 1 | 23 | 74 | 89 | 81 | 40 | 23 | 15 | 0.1 | 50 | 14 | 101 | 88 | 1.5 | 20 | 234 | 9 | Heart weight [6]: 11 g; Kidney weight [6]: 16 g; Liver with gallbladder weight [6]: 72 g; Spleen weight [6]: 5 g; Terminal Body Weight [6]: 2955 g
3 | 958499 (ATTAGAGTATGTGGCA; 3-10-3 cEt gapmer, further chemistry not given here) [compound 958499] | 49 | 29 | 1 | 3 | 28 | 91 | 117 | 76 | 42 | 25 | 14 | 0.1 | 60 | 16 | 112 | 89 | 9.9 | 18 | 275 | 9 | IC50 (Yap1 mRNA [2]): 0.03 µM; Heart weight [6]: 10 g; Kidney weight [6]: 15 g; Liver with gallbladder weight [6]: 68 g; Spleen weight [6]: 4 g; Terminal Body Weight [6]: 2894 g
4 | CGCCGATAAGGTACAC (cEt gapmer, phosphorothioate backbone, further chemistry not given here) [ION 792169, reference compound] |  |  |  |  |  |  |  | 103 | 104 | 100 | 88 |  |  |  |  |  |  |  |  |  | 
5 | 1198439 (AGTGTATGTCAGAAGA; sugar, 5-methylcytosine, phosphorothioate modifications, further chemistry not given here) [compound 1198439] | 37 | 19 | 0 | 1 | 11 | 65 | 93 | 62 | 30 | 22 | 16 | 0.1 | 68 | 15 | 99 | 94 | 2.9 | 19 | 246 | 10 | IC50 (Yap1 mRNA [2]): 0.02 µM; Heart weight [6]: 10 g; Kidney weight [6]: 15 g; Liver with gallbladder weight [6]: 67 g; Spleen weight [6]: 3 g; Terminal Body Weight [6]: 2959 g
